According to ChEMBL document CHEMBL4507265 (2021):

Assays:
[1] = target: Mitogen-activated protein kinase kinase kinase 13 (Homo sapiens) (UniProt O43283); settings: Compound concentration 1000.0 nM
[2] = target: 5'-AMP-activated protein kinase catalytic subunit alpha-1 (Homo sapiens) (UniProt Q13131); settings: Compound concentration 1000.0 nM
[3] = target: Death-associated protein kinase 3 (Homo sapiens) (UniProt O43293); settings: Compound concentration 1000.0 nM
[4] = target: Dual specificity protein kinase CLK4 (Homo sapiens) (UniProt Q9HAZ1); settings: Compound concentration 1000.0 nM
[5] = target: Receptor tyrosine-protein kinase erbB-4 (Homo sapiens) (UniProt Q15303); settings: Compound concentration 1000.0 nM
[6] = target: Serine/threonine-protein kinase Nek9 (Homo sapiens) (UniProt Q8TD19); settings: Compound concentration 1000.0 nM
[7] = target: Death-associated protein kinase 1 (Homo sapiens) (UniProt P53355); settings: Compound concentration 1000.0 nM
[8] = target: Ribosomal protein S6 kinase alpha-5 (Homo sapiens) (UniProt O75582); settings: Compound concentration 1000.0 nM
[9] = target: Mitogen-activated protein kinase 11 (Homo sapiens) (UniProt Q15759); settings: Compound concentration 1000.0 nM
[10] = test system: Epidermal growth factor receptor (Homo sapiens), P00533 [L858R,T790M]; settings: Compound concentration 1000.0 nM
[11] = target: Calcium/calmodulin-dependent protein kinase type IV (Homo sapiens) (UniProt Q16566); settings: Compound concentration 1000.0 nM
[12] = target: Beta-adrenergic receptor kinase 1 (Homo sapiens) (UniProt P25098); settings: Compound concentration 1000.0 nM
[13] = target: Casein kinase I isoform gamma-2 (Homo sapiens) (UniProt P78368); settings: Compound concentration 1000.0 nM
[14] = target: Atypical kinase COQ8A, mitochondrial (Homo sapiens) (UniProt Q8NI60); settings: Compound concentration 1000.0 nM
[15] = test system: Phosphatidylinositol 4,5-bisphosphate 3-kinase catalytic subunit alpha isoform (Homo sapiens), P42336 [H1047L]; settings: Compound concentration 1000.0 nM
[16] = target: Mu-type opioid receptor (Homo sapiens) (UniProt P35372); settings: Compound concentration 10.0 uM
[17] = target: Insulin receptor-related protein (Homo sapiens) (UniProt P14616); settings: Compound concentration 1000.0 nM
[18] = target: Tyrosine-protein kinase receptor Tie-1 (Homo sapiens) (UniProt P35590); settings: Compound concentration 1000.0 nM
[19] = target: Ankyrin repeat and protein kinase domain-containing protein 1 (Homo sapiens) (UniProt Q8NFD2); settings: Compound concentration 1000.0 nM
[20] = target: Hepatocyte growth factor receptor (Homo sapiens) (UniProt P08581); settings: Compound concentration 1000.0 nM
[21] = target: Serine/threonine-protein kinase ULK1 (Homo sapiens) (UniProt O75385); settings: Compound concentration 1000.0 nM
[22] = target: Serine/threonine-protein kinase Nek3 (Homo sapiens) (UniProt P51956); settings: Compound concentration 1000.0 nM
[23] = test system: Receptor-type tyrosine-protein kinase FLT3 (Homo sapiens), P36888 [R834Q]; settings: Compound concentration 1000.0 nM
[24] = target: Sigma intracellular receptor 2 (Homo sapiens, UniProt Q5BJF2); settings: Compound concentration 10.0 uM
[25] = target: Bone morphogenetic protein receptor type-1A (Homo sapiens) (UniProt P36894); settings: Compound concentration 1000.0 nM
[26] = target: Serine/threonine-protein kinase PRP4 homolog (Homo sapiens) (UniProt Q13523); settings: Compound concentration 1000.0 nM
[27] = target: Serine/threonine-protein kinase haspin (Homo sapiens) (UniProt Q8TF76); settings: Compound concentration 1000.0 nM
[28] = target: 5-hydroxytryptamine receptor 7 (Homo sapiens) (UniProt P34969); settings: Compound concentration 10.0 uM
Rattus norvegicus = organism: Rattus norvegicus; settings: Compound concentration 10.0 uM
[29] = target: Phosphorylase b kinase gamma catalytic chain, skeletal muscle/heart isoform (Homo sapiens) (UniProt Q16816); settings: Compound concentration 1000.0 nM
[30] = target: MAP kinase-activated protein kinase 2 (Homo sapiens) (UniProt P49137); settings: Compound concentration 1000.0 nM
[31] = target: Activin receptor type-1B (Homo sapiens) (UniProt P36896); settings: Compound concentration 1000.0 nM
[32] = target: Tyrosine-protein kinase Mer (Homo sapiens) (UniProt Q12866); settings: Compound concentration 1000.0 nM
[33] = target: T1, Muscarinic acetylcholine receptor M1 (Homo sapiens) (UniProt P11229); settings: Compound concentration 10.0 uM
T1 sequence (whole entry): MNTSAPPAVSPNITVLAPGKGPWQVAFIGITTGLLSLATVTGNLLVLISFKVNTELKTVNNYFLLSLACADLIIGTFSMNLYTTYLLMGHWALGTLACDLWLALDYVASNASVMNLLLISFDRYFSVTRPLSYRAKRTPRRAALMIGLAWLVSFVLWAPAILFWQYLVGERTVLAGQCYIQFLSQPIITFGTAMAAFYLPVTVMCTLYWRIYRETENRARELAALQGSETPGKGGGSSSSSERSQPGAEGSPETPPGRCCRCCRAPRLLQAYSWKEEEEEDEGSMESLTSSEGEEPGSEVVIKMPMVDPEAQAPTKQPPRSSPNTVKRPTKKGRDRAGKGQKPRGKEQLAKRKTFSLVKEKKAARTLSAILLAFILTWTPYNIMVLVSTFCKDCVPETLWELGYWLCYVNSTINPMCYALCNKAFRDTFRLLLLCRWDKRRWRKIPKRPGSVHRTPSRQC

[34] = target: Serine/threonine-protein kinase MRCK gamma (Homo sapiens) (UniProt Q6DT37); settings: Compound concentration 1000.0 nM
[35] = target: Mitogen-activated protein kinase kinase kinase kinase 4 (Homo sapiens) (UniProt O95819); settings: Compound concentration 1000.0 nM
[36] = target: Vascular endothelial growth factor receptor 2 (Homo sapiens) (UniProt P35968); settings: Compound concentration 1000.0 nM
[37] = test system: Tyrosine-protein kinase ABL1 (Homo sapiens), P00519 [Q252H]; settings: Compound concentration 1000.0 nM
[38] = target: Serine/threonine-protein kinase Nek11 (Homo sapiens) (UniProt Q8NG66); settings: Compound concentration 1000.0 nM

Sequence of Mitogen-activated protein kinase kinase kinase kinase 4 (Homo sapiens) (O95819 2-1239 limits assumed): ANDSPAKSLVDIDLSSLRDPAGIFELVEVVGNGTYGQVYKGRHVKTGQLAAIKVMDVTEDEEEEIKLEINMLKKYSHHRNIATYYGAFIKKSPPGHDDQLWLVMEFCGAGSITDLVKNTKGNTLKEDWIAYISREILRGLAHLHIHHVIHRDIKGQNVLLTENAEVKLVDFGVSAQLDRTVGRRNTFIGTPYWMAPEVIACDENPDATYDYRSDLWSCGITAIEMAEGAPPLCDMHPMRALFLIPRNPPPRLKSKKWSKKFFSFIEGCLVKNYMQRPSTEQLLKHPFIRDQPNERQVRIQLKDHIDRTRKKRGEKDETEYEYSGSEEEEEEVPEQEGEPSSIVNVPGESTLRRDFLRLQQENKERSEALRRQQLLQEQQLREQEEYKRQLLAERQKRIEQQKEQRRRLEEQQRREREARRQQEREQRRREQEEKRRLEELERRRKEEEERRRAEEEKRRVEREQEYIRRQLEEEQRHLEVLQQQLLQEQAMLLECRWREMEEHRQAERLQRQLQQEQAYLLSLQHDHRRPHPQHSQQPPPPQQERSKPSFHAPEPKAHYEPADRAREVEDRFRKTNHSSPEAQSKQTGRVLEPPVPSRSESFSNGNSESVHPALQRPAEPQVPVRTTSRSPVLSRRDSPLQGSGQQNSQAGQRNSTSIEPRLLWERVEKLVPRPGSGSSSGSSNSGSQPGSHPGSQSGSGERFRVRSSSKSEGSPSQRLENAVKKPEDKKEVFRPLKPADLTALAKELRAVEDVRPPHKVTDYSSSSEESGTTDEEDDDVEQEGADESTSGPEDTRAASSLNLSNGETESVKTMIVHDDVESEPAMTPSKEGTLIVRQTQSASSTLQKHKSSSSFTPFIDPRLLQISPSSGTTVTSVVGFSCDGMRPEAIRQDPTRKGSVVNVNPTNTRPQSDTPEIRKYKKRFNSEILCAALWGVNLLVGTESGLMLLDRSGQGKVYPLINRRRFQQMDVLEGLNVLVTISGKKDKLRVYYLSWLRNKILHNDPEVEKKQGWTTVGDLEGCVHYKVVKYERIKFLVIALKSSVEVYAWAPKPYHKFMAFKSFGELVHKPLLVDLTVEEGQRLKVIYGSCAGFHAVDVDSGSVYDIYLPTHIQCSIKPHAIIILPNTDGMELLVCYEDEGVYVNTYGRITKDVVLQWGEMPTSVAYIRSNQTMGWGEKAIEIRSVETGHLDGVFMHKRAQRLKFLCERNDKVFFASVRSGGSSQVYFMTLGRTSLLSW
Sequence of Serine/threonine-protein kinase Nek3 (Homo sapiens) (P51956 whole entry): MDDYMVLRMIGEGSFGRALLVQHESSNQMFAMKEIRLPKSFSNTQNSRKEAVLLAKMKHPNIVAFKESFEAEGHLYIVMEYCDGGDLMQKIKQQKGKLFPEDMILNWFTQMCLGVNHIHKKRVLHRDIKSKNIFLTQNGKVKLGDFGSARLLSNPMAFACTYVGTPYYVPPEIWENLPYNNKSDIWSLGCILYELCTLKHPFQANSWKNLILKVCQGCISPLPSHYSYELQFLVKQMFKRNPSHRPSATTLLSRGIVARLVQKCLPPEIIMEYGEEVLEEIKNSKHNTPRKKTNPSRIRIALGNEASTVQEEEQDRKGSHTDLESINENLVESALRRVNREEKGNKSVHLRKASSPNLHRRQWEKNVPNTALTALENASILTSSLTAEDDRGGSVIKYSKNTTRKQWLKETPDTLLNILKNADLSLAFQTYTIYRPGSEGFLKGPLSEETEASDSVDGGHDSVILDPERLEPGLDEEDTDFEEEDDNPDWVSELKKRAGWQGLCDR
Sequence of Insulin receptor-related protein (Homo sapiens) (P14616 27-742 limits assumed): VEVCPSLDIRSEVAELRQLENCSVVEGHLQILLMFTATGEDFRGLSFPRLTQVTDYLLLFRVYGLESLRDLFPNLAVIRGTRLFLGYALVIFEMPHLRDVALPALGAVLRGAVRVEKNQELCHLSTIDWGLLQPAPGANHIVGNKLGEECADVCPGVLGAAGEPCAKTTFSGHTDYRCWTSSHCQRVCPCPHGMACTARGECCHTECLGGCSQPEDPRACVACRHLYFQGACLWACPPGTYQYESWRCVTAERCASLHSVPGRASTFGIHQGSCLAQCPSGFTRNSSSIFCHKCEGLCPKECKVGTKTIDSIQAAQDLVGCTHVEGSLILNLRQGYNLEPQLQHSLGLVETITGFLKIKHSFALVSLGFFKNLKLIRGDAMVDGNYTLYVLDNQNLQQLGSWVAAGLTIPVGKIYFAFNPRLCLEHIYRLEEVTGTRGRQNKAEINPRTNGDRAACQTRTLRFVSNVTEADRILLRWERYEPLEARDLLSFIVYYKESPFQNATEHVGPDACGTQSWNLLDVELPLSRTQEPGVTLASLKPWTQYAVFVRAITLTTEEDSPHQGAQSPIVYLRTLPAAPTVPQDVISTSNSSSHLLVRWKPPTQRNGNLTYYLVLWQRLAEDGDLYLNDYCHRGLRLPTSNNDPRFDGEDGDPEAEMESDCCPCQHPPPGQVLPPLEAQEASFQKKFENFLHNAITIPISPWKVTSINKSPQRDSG
Sequence of Insulin receptor-related protein (Homo sapiens) (P14616 747-1297 limits assumed): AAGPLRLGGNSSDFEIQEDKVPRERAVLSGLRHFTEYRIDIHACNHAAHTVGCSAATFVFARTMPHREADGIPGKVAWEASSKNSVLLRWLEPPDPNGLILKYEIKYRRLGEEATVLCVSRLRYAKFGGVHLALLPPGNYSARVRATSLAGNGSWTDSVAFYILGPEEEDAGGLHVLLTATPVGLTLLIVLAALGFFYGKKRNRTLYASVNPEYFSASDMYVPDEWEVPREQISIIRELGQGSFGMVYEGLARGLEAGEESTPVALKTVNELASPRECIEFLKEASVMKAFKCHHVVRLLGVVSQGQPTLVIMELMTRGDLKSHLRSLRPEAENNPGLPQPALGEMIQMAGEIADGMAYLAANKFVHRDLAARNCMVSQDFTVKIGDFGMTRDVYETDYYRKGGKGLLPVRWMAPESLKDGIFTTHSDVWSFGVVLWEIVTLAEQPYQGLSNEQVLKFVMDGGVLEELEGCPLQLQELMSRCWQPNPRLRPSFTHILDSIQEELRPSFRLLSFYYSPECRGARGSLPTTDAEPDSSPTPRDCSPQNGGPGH
Sequence of Phosphatidylinositol 4,5-bisphosphate 3-kinase catalytic subunit alpha isoform (Homo sapiens), P42336 [H1047L] (P42336 whole entry H1047L, canonical isoform): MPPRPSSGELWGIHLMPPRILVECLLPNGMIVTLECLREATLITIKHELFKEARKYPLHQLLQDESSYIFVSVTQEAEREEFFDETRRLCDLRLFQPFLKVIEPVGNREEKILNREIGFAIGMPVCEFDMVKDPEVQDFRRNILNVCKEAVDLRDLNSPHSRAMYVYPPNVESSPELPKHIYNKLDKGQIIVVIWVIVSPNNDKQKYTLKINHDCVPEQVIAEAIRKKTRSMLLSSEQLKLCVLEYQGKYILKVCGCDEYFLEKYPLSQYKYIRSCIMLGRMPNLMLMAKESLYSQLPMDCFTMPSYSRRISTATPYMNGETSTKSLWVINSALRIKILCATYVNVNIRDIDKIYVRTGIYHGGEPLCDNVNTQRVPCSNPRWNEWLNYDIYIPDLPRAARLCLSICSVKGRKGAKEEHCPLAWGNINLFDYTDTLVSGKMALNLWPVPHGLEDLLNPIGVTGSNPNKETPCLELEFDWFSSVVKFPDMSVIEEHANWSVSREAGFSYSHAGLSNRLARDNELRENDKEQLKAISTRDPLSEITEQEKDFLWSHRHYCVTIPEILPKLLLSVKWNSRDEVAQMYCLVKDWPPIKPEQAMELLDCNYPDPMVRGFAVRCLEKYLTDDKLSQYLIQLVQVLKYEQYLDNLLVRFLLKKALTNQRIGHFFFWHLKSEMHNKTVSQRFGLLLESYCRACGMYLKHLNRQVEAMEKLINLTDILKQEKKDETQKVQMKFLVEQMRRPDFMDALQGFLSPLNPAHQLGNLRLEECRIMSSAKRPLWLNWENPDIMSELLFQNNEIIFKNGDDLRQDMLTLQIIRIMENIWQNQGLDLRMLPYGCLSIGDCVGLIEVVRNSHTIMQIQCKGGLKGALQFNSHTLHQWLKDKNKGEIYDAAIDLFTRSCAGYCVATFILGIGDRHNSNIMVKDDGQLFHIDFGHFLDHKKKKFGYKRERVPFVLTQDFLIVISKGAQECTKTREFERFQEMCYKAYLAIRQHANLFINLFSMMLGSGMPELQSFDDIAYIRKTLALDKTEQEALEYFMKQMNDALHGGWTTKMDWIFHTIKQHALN
Sequence of Mitogen-activated protein kinase kinase kinase 13 (Homo sapiens) (O43283 whole entry): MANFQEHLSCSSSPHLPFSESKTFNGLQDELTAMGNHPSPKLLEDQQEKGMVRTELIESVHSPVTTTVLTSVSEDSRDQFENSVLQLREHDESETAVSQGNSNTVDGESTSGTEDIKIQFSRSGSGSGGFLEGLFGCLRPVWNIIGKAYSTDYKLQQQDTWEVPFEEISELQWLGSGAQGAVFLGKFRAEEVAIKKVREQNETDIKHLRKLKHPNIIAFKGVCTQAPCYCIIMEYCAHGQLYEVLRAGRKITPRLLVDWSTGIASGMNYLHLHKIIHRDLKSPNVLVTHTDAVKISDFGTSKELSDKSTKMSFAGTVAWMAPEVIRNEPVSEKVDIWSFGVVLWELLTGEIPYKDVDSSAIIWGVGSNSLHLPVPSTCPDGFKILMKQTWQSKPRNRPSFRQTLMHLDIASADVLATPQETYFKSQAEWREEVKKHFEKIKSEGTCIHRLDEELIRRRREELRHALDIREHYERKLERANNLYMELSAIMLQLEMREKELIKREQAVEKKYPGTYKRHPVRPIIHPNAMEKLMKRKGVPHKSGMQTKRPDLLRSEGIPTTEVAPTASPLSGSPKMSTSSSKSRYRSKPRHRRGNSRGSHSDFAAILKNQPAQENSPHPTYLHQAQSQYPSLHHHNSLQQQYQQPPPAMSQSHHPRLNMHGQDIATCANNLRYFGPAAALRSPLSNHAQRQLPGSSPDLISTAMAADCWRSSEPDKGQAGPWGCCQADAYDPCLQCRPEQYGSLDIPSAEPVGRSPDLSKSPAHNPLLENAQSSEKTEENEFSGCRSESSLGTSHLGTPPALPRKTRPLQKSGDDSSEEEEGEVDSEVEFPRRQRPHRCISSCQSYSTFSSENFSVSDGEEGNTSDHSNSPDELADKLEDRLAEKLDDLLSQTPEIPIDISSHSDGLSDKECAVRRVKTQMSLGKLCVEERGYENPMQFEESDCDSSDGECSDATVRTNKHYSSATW

NS(=O)(=O)c1cc(NC(=O)C2(c3ccccc3Cl)CC2)ccc1Oc1cccc(Cl)c1 [BAY-207]
residual activity [1]: 100% | residual activity [2]: 80% | residual activity [3]: 100% | residual activity [4]: 100% | residual activity [5]: 75% | residual activity [6]: 94% | residual activity [7]: 98% | residual activity [8]: 90% | residual activity [9]: 68% | residual activity [10]: 88% | residual activity [11]: 43% | residual activity [12]: 100% | residual activity [13]: 82% | residual activity [14]: 100% | residual activity [15]: 98% | inhibition [16]: 40.2% | residual activity [17]: 95% | residual activity [18]: 85% | residual activity [19]: 97% | residual activity [20]: 81% | residual activity [21]: 89% | residual activity [22]: 95% | residual activity [23]: 100% | inhibition [24]: 82% | residual activity [25]: 90% | residual activity [26]: 68% | residual activity [27]: 96% | inhibition [28]: 17.3% | inhibition (Rattus norvegicus): 87.5% | residual activity [29]: 89% | residual activity [30]: 90% | residual activity [31]: 89% | residual activity [32]: 70% | inhibition [33]: -3.55% | residual activity [34]: 82% | residual activity [35]: 100% | residual activity [36]: 74% | residual activity [37]: 58% | residual activity [38]: 100%

NS(=O)(=O)c1cc(NC(=O)Cc2ccccc2)ccc1Oc1cccc(Cl)c1 [BAY-1797]
residual activity [1]: 73% | residual activity [2]: 71% | residual activity [3]: 95% | residual activity [4]: 83% | residual activity [5]: 56% | residual activity [6]: 83% | residual activity [7]: 90% | residual activity [8]: 100% | residual activity [9]: 100% | residual activity [10]: 75% | residual activity [11]: 100% | residual activity [12]: 97% | residual activity [13]: 100% | residual activity [14]: 94% | residual activity [15]: 96% | inhibition [16]: 19.3% | residual activity [17]: 100% | residual activity [18]: 100% | residual activity [19]: 78% | residual activity [20]: 91% | residual activity [21]: 88% | residual activity [22]: 100% | residual activity [23]: 91% | inhibition [24]: 59.5% | residual activity [25]: 69% | residual activity [26]: 97% | residual activity [27]: 100% | inhibition [28]: 35.2% | inhibition (Rattus norvegicus): 5.06% | residual activity [29]: 87% | residual activity [30]: 100% | residual activity [31]: 98% | residual activity [32]: 82% | inhibition [33]: 11.4% | residual activity [34]: 100% | residual activity [35]: 71% | residual activity [36]: 77% | residual activity [37]: 100% | residual activity [38]: 100%
